Assay results taken from PMC4501059, “Responding to the challenge of untreatable gonorrhea: ETX0914, a first-in-class agent with a distinct mechanism-of-action against bacterial Type II topoisomerases” (Scientific Reports, 2015).

Key:
[1] = Quantitative whole-body autoradiography, tissue distribution of radioactivity; type: in vivo, male pigmented Lister Hood rat
Method: Quantitative whole-body autoradiography. The distribution of radioactivity in male, pigmented Lister Hood rat tissues was obtained after a single intravenous infusion over 15 minutes of ^14C-AZD0914 at 25 mg/kg (51 μmol/kg, 5 MBq/kg) using quantitative whole-body autoradiography with phosphor-imaging technology. The potential of this compound and/or its metabolites to bind to melanin-containing tissues and/or to potentially bind covalently to tissues was also evaluated. The rats were sacrificed at 5 minutes, 1 hour, 4 hours, 24 hours, 48 hours, 7 days and 21 days after the end of infusion with enflurane (Efrane®, Abbott Laboratories, USA), and frozen in acetone, cooled to -70 °C with solid CO2. The 7- and 21- day animals could not be quantified as no trace of radioactivity was observed. After removal of limbs and tail, the carcass was embedded, with left lateral side uppermost, in a 2.5% (w/v) aqueous solution of caramellosum natricum and frozen for at least 10 minutes. The animal blocks were stored at -20 °C until sectioning. Sagittal whole-body sections (30 μm) were obtained to include organs and tissues of interest. At sectioning each block was mounted in a Leica CM3600 Cryomacrotome (Leica Microsystems GmbH, Germany) maintained at approximately -20 °C. All sections were dried at -20 °C for at least 1 day prior to exposure on phosphor-imaging plates. Together with two sets of calibration standards, the sections were placed on phosphor-imaging plates, which had been pre-covered with a thin plastic film. The imaging plates were exposed for 1 to 3 days at +4 to +12 °C, enclosed in light tight cassettes in a lead shielding box to protect from environmental radiation. Following exposure, the imaging plates were scanned at a pixel size of 50 μm using FLA-7000 (FujiFilm Sverige AB, Sweden). The tissues and organs of interest were quantified using AIDA 3.5 (Raytest, Germany). The quantification limit was defined as twice the background value of the imaging plate and varied between the plates from 0.23 to 0.33 nmol/g. The various tissues and organs were identified either on the autoradiograms or on the corresponding tissue sections.

[2] = Human plasma protein binding (PPB); settings: independent of concentration 1–50 μM
[3] = plasma protein binding, mouse; settings: in vitro at 1-50 µM
[4] = rat, in vivo
[5] = in vivo; settings: rat, po
[6] = 5 minutes after 25 mg/kg iv infusion
[7] = 1 hour after 25 mg/kg iv infusion
[8] = 4 hours after 25 mg/kg iv infusion

C[C@@H]1CN2c3c(cc4c(N5C(=O)OC[C@@H]5C)noc4c3F)C[14C]3(C(=O)NC(=O)NC3=O)[C@H]2[C@H](C)O1 [^14C-ETX0914]
Total radioactivity: Adrenal cortex [1, 6]: 84 nmol/g | Total radioactivity: Adrenal medulla [1, 6]: 43 nmol/g | Total radioactivity: Aortic wall [1, 6]: 53 nmol/g | Total radioactivity: Bile [1, 6]: 1200 nmol/g | Total radioactivity: Bone marrow [1, 6]: 35 nmol/g | Total radioactivity: Brain [1, 6]: 0.79 nmol/g | Total radioactivity: Choroid & retinal pigment epithelium [1, 6]: 16 nmol/g | Total radioactivity: Heart blood [1, 6]: 27 nmol/g | Total radioactivity: Liver [1, 6]: 320 nmol/g | Total radioactivity: Lung [1, 6]: 52 nmol/g | Total radioactivity: Lymph node [1, 6]: 29 nmol/g | Total radioactivity: Myocardium [1, 6]: 73 nmol/g | Total radioactivity: Renal cortex [1, 6]: 170 nmol/g | Total radioactivity: Renal medulla (inner) [1, 6]: 70 nmol/g | Total radioactivity: Renal medulla (outer) [1, 6]: 68 nmol/g | Total radioactivity: Skeletal muscle [1, 6]: 29 nmol/g | Total radioactivity: Skin, pigmented [1, 6]: 15 nmol/g | Total radioactivity: Spinal cord [1, 6]: 1.0 nmol/g | Total radioactivity: Testis [1, 6]: 2.4 nmol/g | Total radioactivity: Urine [1, 6]: 51 nmol/g | Total radioactivity: White fat [1, 6]: 6.6 nmol/g | Total radioactivity: Adrenal cortex [1, 7]: 40 nmol/g | Total radioactivity: Adrenal medulla [1, 7]: 26 nmol/g | Total radioactivity: Aortic wall [1, 7]: 58 nmol/g | Total radioactivity: Bile [1, 7]: 1500 nmol/g | Total radioactivity: Bone marrow [1, 7]: 20 nmol/g | Total radioactivity: Brain [1, 7]: 0.72 nmol/g | Total radioactivity: Choroid & retinal pigment epithelium [1, 7]: 17 nmol/g | Total radioactivity: Heart blood [1, 7]: 18 nmol/g | Total radioactivity: Liver [1, 7]: 190 nmol/g | Total radioactivity: Lung [1, 7]: 31 nmol/g | Total radioactivity: Lymph node [1, 7]: 23 nmol/g | Total radioactivity: Myocardium [1, 7]: 42 nmol/g | Total radioactivity: Renal cortex [1, 7]: 130 nmol/g | Total radioactivity: Renal medulla (inner) [1, 7]: 32 nmol/g | Total radioactivity: Renal medulla (outer) [1, 7]: 120 nmol/g | Total radioactivity: Skeletal muscle [1, 7]: 20 nmol/g | Total radioactivity: Skin, pigmented [1, 7]: 20 nmol/g | Total radioactivity: Spinal cord [1, 7]: 1.0 nmol/g | Total radioactivity: Testis [1, 7]: 5.7 nmol/g | Total radioactivity: Urine [1, 7]: 400 nmol/g | Total radioactivity: White fat [1, 7]: 8.9 nmol/g | Total radioactivity: Adrenal cortex [1, 8]: 8.7 nmol/g | Total radioactivity: Adrenal medulla [1, 8]: 4.5 nmol/g | Total radioactivity: Aortic wall [1, 8]: 13 nmol/g | Total radioactivity: Bone marrow [1, 8]: 4.0 nmol/g | Total radioactivity: Choroid & retinal pigment epithelium [1, 8]: 8.1 nmol/g | Total radioactivity: Heart blood [1, 8]: 4.2 nmol/g | Total radioactivity: Liver [1, 8]: 69 nmol/g | Total radioactivity: Lung [1, 8]: 6.9 nmol/g | Total radioactivity: Lymph node [1, 8]: 4.1 nmol/g | Total radioactivity: Myocardium [1, 8]: 6.9 nmol/g | Total radioactivity: Renal cortex [1, 8]: 39 nmol/g | Total radioactivity: Renal medulla (inner) [1, 8]: 8.0 nmol/g | Total radioactivity: Renal medulla (outer) [1, 8]: 18 nmol/g | Total radioactivity: Skeletal muscle [1, 8]: 4.2 nmol/g | Total radioactivity: Skin, pigmented [1, 8]: 3.6 nmol/g | Total radioactivity: Spinal cord [1, 8]: 0.30 nmol/g | Total radioactivity: Testis [1, 8]: 2.6 nmol/g | Total radioactivity: Urine [1, 8]: 100 nmol/g | Total radioactivity: Brain ([1]; 4 hours after 25 mg/kg iv infusion, BLQ = below limit of quantification (0.24)): BLQ^d | Total radioactivity: Liver ([1]; 24 hours after 25 mg/kg iv infusion): 0.35 nmol/g | Total radioactivity: Liver ([1]; 48 hours after 25 mg/kg iv infusion, BLQ = below limit of quantification (0.24)): BLQ | melanin or covalent binding of parent and/or metabolites to tissue ([1]; pigmented rat): no melanin or covalent binding | CNS penetration ([1]; rat, whole-body autoradiography): very low CNS penetration | PPB (%free) [2]: 17.0 % free | PPB (%free) [3]: 22.1 %free

CC(=O)NC[C@H]1CN(c2ccc(N3CCOCC3)c(F)c2)C(=O)O1 [Linezolid]
neutrophil count [4]: showing suppression | reticulocytes count ([4]; 250 mg/kg): significant suppression | AUC [5]: 1900 µM·h
